Source: patent US20110065694A1 (priority 2009, published 2011)

Experiments:
[1] = biological target: human histamine H3 receptor (Homo sapiens, UniProt Q9Y5N1); assay: H3 GTPγS assay (SPA method), histamine H3 in vitro assay; format: biochemical; conditions: membranes of cells expressing human H3; GTPγ[35S] SPA; antagonist testing with reference agonist at EC80 (30 nM); in one embodiment HCl salts tested; read-out: Potency (functional potency as indicated by IC50)
H3 receptor = biological target: T1, H3 receptor (Rattus norvegicus, UniProt Q9QYN8); assay: Rat H3 ex vivo receptor occupancy assay; conditions: dose giving 50% H3 receptor occupancy; ex vivo binding of [3H] R-α-methylhistamine in rat frontal cortical membranes
T1 construct: membranes to be tested were prepared from brain frontal cortex membranes by homogenization; from tissue; host or cells: frontal cortex of adult male Sprague-Dawley rats
Protocol: This assay was designed to measure occupancy of H3 receptors by compounds provided herein by measuring the competition of binding to the H3 receptor with a radiolabeled ligand known to bind to the H3 receptor. More specifically, receptor occupancy was determined by ex vivo binding studies in rat cortical membranes.
Adult male Sprague-Dawley rats were treated with vehicle or compound at four different dose levels. After an appropriate pre-treatment time (typically 30 min to 1 hr), membranes to be tested were prepared from brain frontal cortex membranes by homogenization in ice-cold assay buffer. Frontal cortical membranes (400 μL containing an equivalent of 5 mg wet weight of tissue/tube) were incubated with 50 µL of [^3H] R-α-methylhistamine (final concentration 2 nM) and either 50 μL of buffer (total binding) or 50 μL of imetit (10 μM; non-specific binding) for 30 min at 25° C. in triplicates. Membrane bound radioactivity was recovered by filtration under vacuum through Skatron 11731 filters, pre-soaked in 0.5% PEI. Filters were rapidly washed with ice-cold 50 mM Tris buffer (wash setting 9,9,0) and radioactivity was determined by liquid scintillation counting (1 mL Packard MV Gold Scintillator). The amount of radioactivity in the membranes at the different doses was used generate a dose response curve and to calculate the ED50 (the dose that results in 50% receptor occupancy).
ED50 is the amount of drug at which 50% of the H3 receptors are occupied by the drug as measured by the amount of radioactivity measured at that dose relative to that measured when no drug (or vehicle) was administered.

Sprague-Dawley rats = assay: Rat EEG assay; format: in vivo; conditions: for number of wake and non-REM sleep bouts / wake bout duration / wake promotion / time spent in REM sleep / time spent in non-REM sleep / time spent in wake: EEG; for normalized power in the 40-60 Hz range (EEG spectral analysis): EEG spectra; for wake promotion: first 6 hours post-dosing; for time spent in REM sleep / time spent in non-REM sleep / time spent in wake: relative to vehicle treated animals
Protocol: The rat EEG assay was designed to measure electrical signals from the brain as a proxy for in vivo biological activity at the H3 receptor.
Specifically, animals were housed in a temperature-controlled recording room under a 12 hour/12 hour light/dark cycle, with food and water available ad libitum. Eight male Sprague-Dawley rats were implanted with chronic recording devices for continuous recordings of electroencephalograph (EEG) via telemetry (Data Sciences Inc). A repeated measures design was employed in which each rat received eight separate dosings of the compound being tested with a minimum of 3 days between doses. […] EEG data were scored visually in 10 second epochs for wake, REM, and non-REM states. Scored data were analyzed and expressed as time spent in each state per hour. Cumulative time spent in wake, non-REM, and REM states were calculated for the 6 hour recording period. To determine whether any of the pharmacological treatments affected the consolidation of behavioral states, the duration and number of bouts for each state were calculated in hourly bins. A “bout” consisted of a minimum of two consecutive 10-second epochs of a given state and ended with any single state change epoch. The EEG spectra during wake and non-REM sleep were analyzed offline with a fast Fourier transform algorithm (NeuroScore software, Data Sciences Inc) on all epochs without a visually detectable artifact. Wake EEG spectra were analyzed in 1 Hz bins. Data were analyzed using two-way repeated-measures ANOVA.
For both compounds, there was an increase in the time spent in wake, a decrease in the time spent in non-REM sleep, and no change in the time spent in REM sleep relative to vehicle treated animals.

T1 sequence (Q9QYN8 whole entry): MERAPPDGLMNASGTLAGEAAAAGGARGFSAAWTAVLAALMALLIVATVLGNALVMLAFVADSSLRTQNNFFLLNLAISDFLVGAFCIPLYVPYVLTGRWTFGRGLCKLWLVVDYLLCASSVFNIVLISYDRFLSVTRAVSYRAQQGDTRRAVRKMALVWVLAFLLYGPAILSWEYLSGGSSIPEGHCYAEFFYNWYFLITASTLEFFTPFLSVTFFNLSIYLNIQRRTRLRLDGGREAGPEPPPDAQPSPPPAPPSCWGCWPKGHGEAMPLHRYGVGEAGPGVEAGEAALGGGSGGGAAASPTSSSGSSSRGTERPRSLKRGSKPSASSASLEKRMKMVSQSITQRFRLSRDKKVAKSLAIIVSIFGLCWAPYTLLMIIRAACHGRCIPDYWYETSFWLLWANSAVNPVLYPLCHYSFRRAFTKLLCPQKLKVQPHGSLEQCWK
Sequence of human histamine H3 receptor (Q9Y5N1 whole entry): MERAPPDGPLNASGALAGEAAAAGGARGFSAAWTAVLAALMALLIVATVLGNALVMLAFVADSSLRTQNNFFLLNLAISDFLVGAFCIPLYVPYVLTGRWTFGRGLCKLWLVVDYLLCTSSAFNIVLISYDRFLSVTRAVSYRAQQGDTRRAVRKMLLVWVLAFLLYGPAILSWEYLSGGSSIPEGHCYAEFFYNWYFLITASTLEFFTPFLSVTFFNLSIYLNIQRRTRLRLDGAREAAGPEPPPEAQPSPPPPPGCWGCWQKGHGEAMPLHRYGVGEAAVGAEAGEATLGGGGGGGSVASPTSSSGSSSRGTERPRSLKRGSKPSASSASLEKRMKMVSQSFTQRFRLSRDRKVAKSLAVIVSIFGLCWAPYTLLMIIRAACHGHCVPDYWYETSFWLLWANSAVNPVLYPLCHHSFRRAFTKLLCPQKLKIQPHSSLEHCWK

Structure (SMILES) | IC50 [1] | ED50 (H3 receptor) | number of wake and non-REM sleep bouts (Sprague-Dawley rats) | wake bout duration (Sprague-Dawley rats) | normalized power in the 40-60 Hz range (EEG spectral analysis) (Sprague-Dawley rats) | wake promotion (Sprague-Dawley rats) | time spent in REM sleep (Sprague-Dawley rats) | time spent in non-REM sleep (Sprague-Dawley rats) | time spent in wake (Sprague-Dawley rats)
c1cn2cc(-c3ccc4c(c3)nc3n4CCCN(C4CCC4)CC3)ccc2n1 [Compound 59, 3-cyclobutyl-10-(imidazo[1,2-a]pyridin-6-yl)-1,2,3,4,5,6-hexahydrobenzo[4,5]imidazo[1,2-a][1,5]diazocine] | < 10 nM | ≤ 1 mg/kg | decrease | increase | increase | wake promoting | no change | decrease | increase
c1cn2cc(-c3ccc4c(c3)nc3n4CCN4CCCC[C@@H]4C3)ccc2n1 (single isomer, unassigned) [Compound 48] | < 10 nM | ≤ 1 mg/kg | decrease | increase | increase | wake promoting | no change | decrease | increase
